Assay results reported in patent publication US8110703B2, “Retinoid derivative and pharmaceutical composition and use thereof” (Anhui Medical University, priority 2008, dated 2012).
Several values for one entry are separate records, joined by “and”; a condition that tells them apart may be missing. Equal entries are not always repeated. Marks after values point to notes of the source that are not given here.

Experiments:
Type in all cases: cell-based
[1] = test system: HepG2 cells; test: AFP secretory volume of HepG2 cells; conditions: for AFP: HepG2 cells
[2] = test system: liver cancer HepG2 cells; test: MTT cell growth and proliferation experiment, HepG2; parameters: key to Inhibition Rate: (control OD570 − test OD570)/control OD570, as fraction; conditions: for Inhibition Rate: fraction
Outline: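 After treatment, 20 ul/well of MTT (5 g/L) was added for 4 h at 37° C. The medium was then removed and 20 ul/well DMSO added to dissolve the crystals. Plates were shaken 10 min and read at 570 nm. Inhibition rate was (control OD570 − experimental OD570)/control OD570 × 100%, averaged over three experiments.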

[3] = test system: HepG2 cells; test: Cell cycle and apoptosis by flow cytometry, HepG2; conditions: for Apoptosis Rate (%) / G0-G1 (%) / G2-M (%) / S %: HepG2, flow cytometry
[4] = test system: A549 cells; test: Cell cycle and apoptosis by flow cytometry, A549; conditions: A549, 10 μg/ml, 3 days, PI flow cytometry
Procedure: 1.4 Detection of Cell Cycle and Apoptosis by Flow Cytometry A549 cells in the logarithmic phase are collected, regulated with the concentrations thereof to 8×10^7/L, inoculated in a 6-hole board, cultured in an incubator (37° C. and 5% CO2). After the cells are adhered, the culture solution is discarded, and a culture solution having drugs with the corresponding concentrations is added and divided into 10 μg/ml drug groups, 10 μg/ml fenretinide groups, cell control groups, solvent control groups (1‰ DMSO and anhydrous ethanol) (11 in total). After 3 days, each group of cells is normally digested, collected, blown into single cell suspension, washed by cold PBS twice, and re-suspend by 10 μl PBS. Fixing and member breaking agents and a PI staining solution are added according to the Coulter DNA detection kit and reacted with one another at the room temperature and out of light for 30 min for machine detection. Each sample detects 10000 cells and repeats for three times, and the data are analyzed by Analysis software for the ratio during the G0-G1, S and G2-M periods and the ratio of apoptotic cells.

[5] = test system: A549 lung cancer cells; test: MTT cell growth and proliferation experiment, A549; parameters: key to Inhibition Rate: (control OD570 − test OD570)/control OD570, as fraction
Outline: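 Cells in DMEM/10% calf serum were treated with retinoic acid derivatives at 1, 5 and 10 ug/ml (DMSO <0.1%) for 3 d, then with MTT for 4 h at 37° C. Read-out was OD570 after DMSO solubilisation, giving % growth inhibition versus control wells. A time-course at 10 umol/L ran for 1, 2, 3 and 7 days.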

[6] = test system: A549 cells; test: Differentiation index: CEA secretory volume of A549 cells; conditions: A549 culture supernatant, 10 ug/ml, 3 d, DMSO
Procedure: 1.6 Detection of Differentiation Index The cultured A549 cells are randomly divided into 6 10 μg/ml drug groups, cell control groups, solvent control groups (DMSO and ethanol) and 10 μg/ml fenretinide control groups (11 in total). The control groups and drug groups are cultured for 3 days to collect respective 3 tubes of cell culture solutions which are centrifugated at a speed of 4000 r/min for 5 min to take the supernatant and detect the CEA content of the kit by using enzyme kinetics and CEA detection.

[7] = test system: HepG2 cells; test: γ-GT specific activity of HepG2 cells
[8] = HepG2, MTT OD 570 nm, 1 ug/ml, 3 d, solvent not given
[9] = HepG2, MTT OD 570 nm, 5 ug/ml, 3 d, solvent not given
[10] = HepG2, MTT OD 570 nm, 10 ug/ml, 3 d, solvent not given
[11] = HepG2, MTT time gradient, 10 ug/ml, 1 d
[12] = HepG2, MTT time gradient, 10 ug/ml, 2 d
[13] = HepG2, MTT time gradient, 10 ug/ml, 3 d
[14] = HepG2, MTT time gradient, 10 ug/ml, 7 d
[15] = HepG2, MTT, 1 ug/ml, 3 d, solvent not given
[16] = HepG2, MTT, 5 ug/ml, 3 d, solvent not given
[17] = HepG2, MTT, 10 ug/ml, 3 d, solvent not given
[18] = HepG2, Table 5 repeat MTT, 10 ug/ml, 3 days, ethanol
[19] = A549, MTT OD 570 nm, 1 ug/ml, 3 d, solvent DMSO (D)
[20] = A549, MTT OD 570 nm, 5 ug/ml, 3 d, solvent DMSO (D)
[21] = A549, MTT OD 570 nm, 10 ug/ml, 3 d, solvent DMSO (D)
[22] = A549, MTT time gradient, 10 ug/ml, 1 d
[23] = A549, MTT time gradient, 10 ug/ml, 1 d, fraction
[24] = A549, MTT time gradient, 10 ug/ml, 2 d
[25] = A549, MTT time gradient, 10 ug/ml, 2 d, fraction
[26] = A549, MTT time gradient, 10 ug/ml, 3 d
[27] = A549, MTT time gradient, 10 ug/ml, 3 d, fraction
[28] = A549, MTT time gradient, 10 ug/ml, 7 d
[29] = A549, MTT time gradient, 10 ug/ml, 7 d, fraction
[30] = HepG2, Table 5 repeat MTT, 10 ug/ml, 3 days, DMSO

SMILES: CC1=C(/C=C/C(C)=C/C=C/C(C)=C/C(=O)Oc2ccc(N)cc2C(F)(F)F)C(C)(C)CCC1 [Example 4a-02, (4-amino-2-trifluoromethylphenyl)-(all-trans)-3,7-dimethyl-9-(2,6,6-trimethyl-1-cyclohexen-1-yl)-2,4,6,8-nonatetraenoate]
- effects on AFP secretory volume (statistics, in words) ([1]; HepG2, compared with the control groups, P less than 0.05): meaningful in statistics
- AFP ([1]; ethanol): 10.4* ug/L
- OD Value (x ± s) [2, 8]: 1.50 ± 0.24
- OD Value (x ± s) [2, 9]: 1.32 ± 0.50
- OD Value (x ± s) [2, 10]: 0.86 ± 0.13
- OD Value (x ± s) [2, 11]: 1.53 ± 0.27
- Inhibition Rate [2, 11]: 0.11
- OD Value (x ± s) [2, 12]: 1.36 ± 0.13
- Inhibition Rate [2, 12]: 0.20
- OD Value (x ± s) [2, 13]: 0.74 ± 0.08
- Inhibition Rate [2, 13]: 0.46
- OD Value (x ± s) [2, 14]: 0.70 ± 0.05
- Inhibition Rate [2, 14]: 0.48
- Inhibition Rate [2, 15]: 0.11
- Inhibition Rate [2, 16]: 0.22
- Inhibition Rate [2, 17]: 0.49
- OD Value (x ± s) [2, 18]: 1.409 ± 0.090
- Inhibition Rate [2, 18]: 0.349*
- effect on the apoptosis of HepG2 cells (ranking in words) ([3]; HepG2): most greatly effects on the apoptosis of HepG2 cells
- Apoptosis Rate (%) [3]: 38.1* %
- G0-G1 (%) [3]: 30.9%
- G2-M (%) [3]: 3.20%
- S % [3]: 28.5%
- Apoptosis Rate (%) [4]: 23.9%
- G0-G1 (%) [4]: 44.1%
- G2-M (%) [4]: 1.90%
- S % [4]: 29.4%
- OD Value (x ± s) [5, 19]: 1.644 ± 0.272 and 2.020 ± 0.317
- OD Value (x ± s) [5, 20]: 1.618 ± 0.087 and 1.979 ± 0.138
- OD Value (x ± s) [5, 21]: 1.808 ± 0.143
- OD Value (x ± s) [5, 22]: 0.815 ± 0.045
- Inhibition Rate [5, 23]: 0.111
- OD Value (x ± s) [5, 24]: 1.176 ± 0.021
- Inhibition Rate [5, 25]: 0.196
- OD Value (x ± s) [5, 26]: 0.720 ± 0.025
- Inhibition Rate [5, 27]: 0.223
- OD Value (x ± s) [5, 28]: 1.144 ± 0.150
- Inhibition Rate [5, 29]: 0.448
- CEA [6]: 3.1 µg/L
- γ-GT ([7]; ethanol): 32.6 ± 1.5 U/L

SMILES: CC1=C(/C=C/C(C)=C/C=C/C(C)=C/C(=O)Nc2cccc(OC(F)(F)F)c2)C(C)(C)CCC1 [Example 6a-02, (3-trifluoromethoxyphenyl)-(all-trans)-3,7-dimethyl-9-(2,6,6-trimethyl-1-cyclohexen-1-yl)-2,4,6,8-nonatetraenoic acid amide]
- AFP ([1]; DMSO): 15.6 µg/L
- OD Value (x ± s) [2, 8]: 1.38 ± 0.62
- OD Value (x ± s) [2, 9]: 1.16 ± 0.38
- OD Value (x ± s) [2, 10]: 0.84 ± 0.31
- OD Value (x ± s) [2, 11]: 1.60 ± 0.19
- Inhibition Rate [2, 11]: 0.07
- OD Value (x ± s) [2, 12]: 1.14 ± 0.09
- Inhibition Rate [2, 12]: 0.32
- OD Value (x ± s) [2, 13]: 0.81 ± 0.12
- Inhibition Rate [2, 13]: 0.34
- OD Value (x ± s) [2, 14]: 0.49 ± 0.32
- Inhibition Rate [2, 14]: 0.63
- Inhibition Rate [2, 15]: 0.18
- Inhibition Rate [2, 16]: 0.31
- Inhibition Rate [2, 17]: 0.50
- OD Value (x ± s) [2, 30]: 1.125 ± 0.146
- Inhibition Rate [2, 30]: 0.480*
- Apoptosis Rate (%) [3]: 15.7* %
- G0-G1 (%) [3]: 57.5%
- G2-M (%) [3]: 2.61%
- S % [3]: 25.4%
- Apoptosis Rate (%) [4]: 9.79%
- G0-G1 (%) [4]: 70.0%
- G2-M (%) [4]: 1.71%
- S % [4]: 19.0%
- OD Value (x ± s) [5, 19]: 1.637 ± 0.146 and 1.614 ± 0.146
- OD Value (x ± s) [5, 20]: 1.613 ± 0.120 and 1.580 ± 0.096
- OD Value (x ± s) [5, 21]: 1.362 ± 0.077 and 1.498 ± 0.218
- OD Value (x ± s) [5, 22]: 0.774 ± 0.030
- Inhibition Rate [5, 23]: 0.156
- OD Value (x ± s) [5, 24]: 1.065 ± 0.045
- Inhibition Rate [5, 25]: 0.272
- OD Value (x ± s) [5, 26]: 0.408 ± 0.028
- Inhibition Rate [5, 27]: 0.561
- OD Value (x ± s) [5, 28]: 0.666 ± 0.049
- Inhibition Rate [5, 29]: 0.679
- Inhibition Rate ([5]; A549, MTT, 1 ug/ml, 3 d, solvent DMSO (D), given as fraction): 0.123 and 0.135
- Inhibition Rate ([5]; A549, MTT, 5 ug/ml, 3 d, solvent DMSO (D), given as fraction): 0.136 and 0.154
- Inhibition Rate ([5]; A549, MTT, 10 ug/ml, 3 d, solvent DMSO (D), given as fraction): 0.270 and 0.197
- CEA [6]: 3.5 µg/L
- γ-GT ([7]; DMSO): 42.3 ± 2.0 U/L
